{"source": "paper PMC8311653", "about": "“Design, Synthesis, In Vitro and In Vivo Characterization of Selective NKCC1 Inhibitors for the Treatment of Core Symptoms in Down Syndrome” (Journal of Medicinal Chemistry, 2021)", "tested_on": "Ts65Dn mice", "test": "Open field test (locomotor activity)", "assay_type": "in vivo, mouse", "conditions": "ip 0.6 mg kg-1 daily", "protocol": "All animal procedures were approved by IIT licensing in compliance with the Italian Ministry of Health (D.Lgs 26/2014) and EU guidelines (Directive 2010/63/EU). A veterinarian was employed to maintain the health and comfort of the animals. Mice were housed in filtered cages in a temperature-controlled room with a 12:12 h dark/light cycle and with ad libitum access to water and food. All efforts were made to minimize animal suffering and use the lowest possible number of animals required to produce statistical relevant results, according to the “3Rs concept”. In this study, we used Ts65Dn mice maintained in their original genetic background[57] by crossing (more than 40 times) Ts65Dn female to C57BL/6JEi × C3SnHeSnJ (B6EiC3) F1 males (Jackson Laboratories). Ts65Dn mice were genotyped by PCR as previously described.[58] Only males were used for behavioral experiments. […]\nTs65Dn male mice (8–16 weeks old) were tested after 1 week of treatment with vehicle or 40 (0.6 mg kg^–1 i.p.). […] The tasks were video-recorded and then analyzed manually by a blind operator. […] The alternation score was calculated as the percentage of correct choices (i.e., left–right or right–left) over the total number of the 10 possible alternations. […]"}
{"smiles": "CN(C)S(=O)(=O)c1cc(C(=O)O)c(O)cc1NCCCCCCCC(F)(F)F", "note": "[Compound 40, 5-(N,N-Dimethylsulfamoyl)-2-hydroxy-4-((8,8,8-trifluorooctyl)amino)benzoic Acid]", "values": [{"measurement": "hyperactivity in open field (distance traveled and average walking speed)", "value": "rescued also the hyperactivity"}]}
